ChEMBL document CHEMBL4425082, “Antimalarial Chemotherapy: Natural Product Inspired Development of Preclinical and Clinical Candidates with Diverse Mechanisms of Action” (J Med Chem, 2016)
pIC50: −log10 of the molar value.

How the values were obtained:
[1] = Inhibition of Plasmodium falciparum cytochrome bc1 expressed in HEK293 cells by spectrophotometric analysis; format: cell-based
[2] = Inhibition of Plasmodium falciparum NDH2 expressed in HEK293 cells by spectrophotometric analysis; format: cell-based
Plasmodium berghei [3] = test: Antimalarial activity against blood stage Plasmodium berghei infected in mouse administered qd through oral gavage for 4 days; conditions: 96 h
Plasmodium yoelii = test: Antimalarial activity against blood stage Plasmodium yoelii infected in mouse administered qd through oral gavage for 4 days; format: functional; conditions: 96 h
Plasmodium falciparum [4] = test: Antimalarial activity against Plasmodium falciparum 3D7; format: functional, organism-based
Plasmodium falciparum [5] = test: Antimalarial activity against atovaquone-resistant Plasmodium falciparum TM90C2B; format: functional, organism-based
[6] = Therapeutic index, ratio of IC50 for mouse/rat NG108 cells to IC50 chloroquine-resistant Plasmodium falciparum W2; format: toxicity; conditions: read-out: Ratio IC50
[7] = Therapeutic index, ratio of IC50 for mouse J774 cells to IC50 chloroquine-resistant Plasmodium falciparum W2; format: toxicity; conditions: read-out: Ratio IC50
Plasmodium falciparum [8] = test: Antimalarial activity against chloroquine-resistant Plasmodium falciparum W2 by [3H]-hypoxanthine incorporation assay; format: functional, organism-based
Plasmodium berghei [9] = test: Antimalarial activity against Plasmodium berghei infected in po dosed mouse erythrocyte administered qd for 8 days by Giemsa staining based microscopic analysis; format: functional; conditions: 192 h
[10] = Oral bioavailability in rat at 3 mg/kg; format: ADME, organism-based; conditions: in vivo
Plasmodium falciparum [11] = test: Antimalarial activity against Plasmodium falciparum FCR 3TC after 48 hrs; format: functional, organism-based
[12] = Half life in human; format: ADME
Plasmodium falciparum [13] = test: Antimalarial activity against Plasmodium falciparum 3D7 after 48 hrs; format: functional, organism-based; conditions: 3D7, 48 h
Plasmodium falciparum [14] = test: Antimalarial activity against Plasmodium falciparum W2 after 48 hrs; format: functional, organism-based; conditions: W2, 48 h
Plasmodium falciparum [15] = test: Antimalarial activity against Plasmodium falciparum 3D7 after 96 hrs; format: functional, organism-based; conditions: 3D7, 96 h
Plasmodium vinckei [16] = test: Antimalarial activity against Plasmodium vinckei infected in po dosed mouse assessed as reduction in parasitemia administered tid by 4-day suppression test; format: functional; conditions: 96 h
[17] = Oral bioavailability in rat; format: ADME, organism-based; conditions: in vivo
Plasmodium vinckei [18] = test: Antimalarial activity against Plasmodium vinckei infected in ip dosed mouse assessed as reduction in parasitemia administered tid by 4-day suppression test; format: functional; conditions: 96 h
Plasmodium falciparum [19] = test: Antimalarial activity against Plasmodium falciparum Dd2 assessed as reduction in parasite viability by [3H]-hypoxanthine incorporation assay; format: functional, organism-based
Plasmodium berghei [20] = test: Antimalarial activity against GFP-transfected Plasmodium berghei ANKA infected in mouse assessed as reduction in parasitemia at 30 mg/kg, po administered on day 1 post infection measured on day 3 post infection; format: functional; parameters: scale not given: the % may be the effect or the level left

Structure (SMILES): Cc1c(-c2ccc(-c3ccc(OC(F)(F)F)cc3)nc2)[nH]c2ccccc2c1=O
- pIC50 [1]: 7.82
- pIC50 [2]: 7.85
- ED50 (Plasmodium berghei [3]): 1.8 mg/kg
- ED90 (Plasmodium berghei [3]): 4.7 mg/kg

Structure (SMILES): COc1cc2[nH]c(C)c(-c3ccc(Oc4ccc(OC(F)(F)F)cc4)cc3)c(=O)c2cc1Cl
- ED50 (Plasmodium yoelii): 0.1 mg/kg
- ED90 (Plasmodium yoelii): 0.15 mg/kg
- pIC50 (Plasmodium falciparum [4]): 8.30
- pIC50 (Plasmodium falciparum [5]): 8.52

Structure (SMILES): O=C(C[C@H]1NCCC[C@@H]1O)Cn1cnc2ccccc2c1=O
- selectivity ratio [6]: 3
- selectivity ratio [7]: 3
- pIC50 (Plasmodium falciparum [8]): 8.60
- ED50 (Plasmodium berghei [9]): 2.3 mg/kg

Structure (SMILES): c1cc([C@H]2CC[C@]3(CC2)OO[C@]2(O3)C3CC4CC(C3)CC2C4)ccc1OCCN1CCOCC1 [ARTEFENOMEL]
- bioavailability [10]: 76%

Structure (SMILES): O=C1C(O)=C([C@H]2CC[C@H](c3ccc(Cl)cc3)CC2)C(=O)c2ccccc21 [ATOVAQUONE]
- ED50 (Plasmodium yoelii): 0.02 mg/kg
- ED90 (Plasmodium yoelii): 0.04 mg/kg
- pIC50 [1]: 8.70
- pIC50 [2]: < 5.00
- pIC50 (Plasmodium falciparum [4]): 9.40
- pIC50 (Plasmodium falciparum [5]): < 5.00

Structure (SMILES): CC[C@H]1OC(=O)[C@H](C)[C@@H](O[C@H]2C[C@@](C)(OC)[C@@H](O)[C@H](C)O2)[C@H](C)[C@@H](O[C@@H]2O[C@H](C)C[C@H](N(C)C)[C@H]2O)[C@](C)(O)C[C@@H](C)CN(C)[C@H](C)[C@@H](O)[C@]1(C)O [AZITHROMYCIN]
- pIC50 (Plasmodium falciparum [11]): 5.19
- half-life [12]: 74 h

Structure (SMILES): CCC[C@@H]1C[C@@H](C(=O)N[C@@H]([C@H]2O[C@H](SC)[C@H](O)[C@@H](O)[C@H]2O)[C@H](C)Cl)N(C)C1 [CLINDAMYCIN]
- pIC50 (Plasmodium falciparum [13]): < 5.00
- pIC50 (Plasmodium falciparum [14]): < 5.00
- pIC50 (Plasmodium falciparum [15]): 6.35

Structure (SMILES): CC[C@H]1OC(=O)[C@H](C)[C@@H](O[C@H]2C[C@@](C)(OC)[C@@H](O)[C@H](C)O2)[C@H](C)[C@@H](O[C@@H]2O[C@H](C)C[C@H](N(C)C)[C@H]2O)[C@](C)(O)C[C@@H](C)C(=O)[C@H](C)[C@@H](O)[C@]1(C)O [ERYTHROMYCIN]
- pIC50 (Plasmodium falciparum [11]): 4.17

Structure (SMILES): O=CN(O)CCCP(=O)(O)O [FOSMIDOMYCIN]
- ED90 (Plasmodium vinckei [16]): 20 mg/kg
- bioavailability [17]: 30%
- ED90 (Plasmodium vinckei [18]): 5 mg/kg
- pIC50 (Plasmodium falciparum [19]): 6.54

Structure (SMILES): CC(=O)N(O)CCCP(=O)(O)O [FR-900098]
- pIC50 (Plasmodium falciparum [19]): 7.05

Structure (SMILES): CC(C)(N)CNC(=O)C[C@H]1CC[C@]2(CC1)OO[C@]1(O2)C2CC3CC(C2)CC1C3 [OZ277]
- Activity (Plasmodium berghei [20]): 99%
- bioavailability [10]: 13%
